No end group written: not given here.
What was measured:
NADPH oxidase [1] = assay: NADPH oxidase activity in LPS-stimulated RAW2647 cells (lucigenin-ECL superoxide); assay type: cell-based, mouse; conditions: RAW2647 cells stimulated with LPS; treated at 1, 5 or 10 μg/mL; FIG. 2
Experimental: A mouse macrophage cell line, which is RAW2647 (ATCCTIB-71; American Type Culture Collection) cells, was cultured using DMEM (Invitrogen) containing 10% fetal bovine serum (FBS; Invitrogen), sodium pyruvate, non-essential amino acids, penicillin G (100 IU/ml) and streptomycin (100 μg/ml).
Whether reactive oxygen species (ROS) production is inhibited when RAW2647 cells were treated with each of SPG-SH1, SPG-SH2 or SPG-SH3 was determined. Particularly. NADPH oxidase (NOX) activity and a mitochondrial ROS level were confirmed.
Particularly, after the RAW2647 cells were stimulated with LPS, SPG-SH1, SPG-SH2 or SPG-SH3 was treated at a concentration of 1, 5 or 10 μg/mL, respectively. The NADPH oxidase activity was confirmed by measuring the production of a superoxide in the RAW2647 cells by a lucigenin (bis-N-methylacridinium nitrate)-ECL method. The production of mitochondrial ROS was determined by staining the RAW2647 cells with 5 μM of MitoSOX for 30 minutes and then measuring mean fluorescence intensity (MFI) by FACS analysis.

NADPH oxidase [2] = assay: NADPH oxidase activity in spleen of CLP mice; assay type: in vivo; conditions: spleen of CLP mouse; intraperitoneal at 3, 6 and 12 hours, doses of Table 1; FIG. 3
Experimental: (§1) The pharmaceutical composition of the present invention was intraperitoneally administered into a CLP mouse to confirm an antiinflammatory effect thereof. Specifically, the CLP mouse was anesthetized by administering pentothal sodium (50 mg/kg) intraperitoneally, and then its abdomen was dissected to expose the cecum. The cecum was ligated below the ileocecal valve, punctured twice with a 22-gauge needle, and then the abdomen was closed.
(§2) Sepsis mouse models induced by cecal ligation and puncture (CLP) were prepared using 6-week-old C57BL/6 female mice (Samtako, Korea). All animal-related procedures were approved by the Institutional Animal Care and Use Committee of Hanyang University. The CLP mice were intraperitoneally administered three times (at 3, 6 and 12 hours) with an administered substance shown in Table 1. SPG-SC is a peptide complex having a sequence in which SPG-SH3 sequences were randomly mixed, and as the antibiotic, a combination of gentamycin and cephalosporin was used.
(§3) Particularly, CLP mice (n=5) treated with the same administered substances as in Example <1-1> were prepared. […] Alternatively, the spleen of the CLP mouse was obtained and fractionated, a 5 μM reagent in a mitochondrial ROS activity assay kit (CA-R933) was treated for 60 minutes, and Ex/Em was measured at 490/525 nm. […]

IL-1β = IL-1β in peripheral blood of CLP mice (ELISA); assay type: in vivo, mouse; conditions: 20 hours after treatment, FIG. 5
Experimental: as §2
(§4) Whether a pro-inflammatory cytokine was inhibited when CLP mice were treated with a combination of SPG-SH3 and an antibiotic was determined.
(§5) Specifically, 20 hours after CLP mice were treated with the same administered substances as in Example <1-1>, the peripheral blood was obtained. The concentrations of TNF-α, IL-6, IL-1β and IL-18 in the blood were measured using an ELISA kit (BD Biosciences).

IL-18 = IL-18 in peripheral blood of CLP mice (ELISA); assay type: in vivo, mouse; conditions: 20 hours after treatment, FIG. 5
Experimental: as §2, §4, §5

CLP mice [3] = assay: Survival of mice with CLP-induced sepsis; assay type: in vivo, mouse; conditions: approximately 60 hours after CLP treatment, doses of Table 1, FIG. 4
Experimental: as §1, §2
Specifically. CLP mice (n=7, twice; total 14) were treated with the administered substances as in Example <1-1> and monitored for 7 days.

CLP mice [4] = assay: Total ROS in spleen of CLP mice; assay type: in vivo; conditions: spleen of CLP mouse; intraperitoneal at 3, 6 and 12 hours, doses of Table 1; FIG. 3
Experimental: as §1, §2, §3

IL-6 = IL-6 in peripheral blood of CLP mice (ELISA); assay type: in vivo, mouse; conditions: 20 hours after treatment, FIG. 5
Experimental: as §2, §4, §5

TNF-α = TNF-α in peripheral blood of CLP mice (ELISA); assay type: in vivo, mouse; conditions: 20 hours after treatment, FIG. 5
Experimental: as §2, §4, §5

Chain of NADPH oxidase (O70145 whole entry): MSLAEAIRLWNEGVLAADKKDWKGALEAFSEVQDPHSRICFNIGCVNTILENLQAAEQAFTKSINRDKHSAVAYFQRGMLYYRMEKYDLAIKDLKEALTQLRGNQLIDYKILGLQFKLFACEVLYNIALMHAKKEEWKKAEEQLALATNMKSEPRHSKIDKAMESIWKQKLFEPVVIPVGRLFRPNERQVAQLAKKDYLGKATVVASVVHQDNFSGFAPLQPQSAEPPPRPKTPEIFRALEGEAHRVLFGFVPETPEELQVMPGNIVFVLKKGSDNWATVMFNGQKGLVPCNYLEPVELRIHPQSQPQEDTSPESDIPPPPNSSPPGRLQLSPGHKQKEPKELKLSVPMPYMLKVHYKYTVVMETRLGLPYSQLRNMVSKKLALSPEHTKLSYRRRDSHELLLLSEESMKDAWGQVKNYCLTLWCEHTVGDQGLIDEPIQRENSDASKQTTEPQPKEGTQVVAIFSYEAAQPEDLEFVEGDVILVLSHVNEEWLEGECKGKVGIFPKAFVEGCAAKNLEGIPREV
Chain of NADPH oxidase (Q09014 whole entry, further chain): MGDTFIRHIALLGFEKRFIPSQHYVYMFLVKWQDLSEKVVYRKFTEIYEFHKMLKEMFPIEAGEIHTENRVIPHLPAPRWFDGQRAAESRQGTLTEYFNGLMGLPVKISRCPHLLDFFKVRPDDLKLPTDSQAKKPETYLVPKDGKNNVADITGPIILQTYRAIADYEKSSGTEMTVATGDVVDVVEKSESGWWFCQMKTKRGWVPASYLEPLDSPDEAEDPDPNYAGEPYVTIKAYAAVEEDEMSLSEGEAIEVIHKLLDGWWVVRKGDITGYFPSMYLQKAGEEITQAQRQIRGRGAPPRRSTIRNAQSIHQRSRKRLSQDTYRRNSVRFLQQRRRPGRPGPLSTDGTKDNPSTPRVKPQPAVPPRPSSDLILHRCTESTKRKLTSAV

Substance	NADPH oxidase activity (NADPH oxidase [1])	NADPH oxidase activity level (NADPH oxidase [2])	concentration of IL-1β (IL-1β)	concentration of IL-18 (IL-18)	survival rate (CLP mice [3])	total ROS level (CLP mice [4])	concentration of IL-6 (IL-6)	concentration of TNF-α (TNF-α)
SH3: SH3 peptide, SEQ ID NO: 4, ALLSFKKGGQTGYIPSNYV, 19 amino acids, from SH3-1 and SH3-2 sequences of c-Src (SH3)	lowest							
SPG-SH3: β-glucan-peptide complex: schizophyllan (β-1,3-glucan) carboxylated and linked to amine group of SH3 peptide (SEQ ID NO: 4, ALLSFKKGGQTGYIPSNYV) (also: linked via amine group to carboxylated schizophyllan β-glucan)	lowest	significantly reduced	significantly reduced	significantly reduced	approximately 70%	significantly reduced	significantly reduced	significantly reduced

— US11311599B2, “β-1,3-glucan-peptide complex: compositions and methods” (priority 2018, dated 2022)
